Here are results for 1 compound from ChEMBL document CHEMBL4304811, “Development of a Water-Soluble Indolylmaleimide Derivative IM-93 Showing Dual Inhibition of Ferroptosis and NETosis” (ACS Med Chem Lett, 2019).

In assay [1] the target is AP2-associated protein kinase 1 (Homo sapiens) (UniProt Q2M2I8). Kind of assay: Binding affinity to wild-type human partial length AAK1 (G25 to L333 residues) expressed in bacterial expression system assessed as residual binding level at 10 uM by Kinomescan method relative to control.
Assay [2] has as its system Tyrosine-protein kinase ABL1 (Homo sapiens), P00519 [F317I]. Kind of assay: Binding affinity to human non-phosphorylated ABL1 F317I mutant (S229 to K512 residues) expressed in mammalian expression system assessed as residual binding level at 10 uM by Kinomescan method relative to control.
Assay [3] concerns the target Atypical kinase COQ8A, mitochondrial (Homo sapiens) (UniProt Q8NI60). Kind of assay: Binding affinity to wild-type human full length ADCK3 (M280 to Q647 residues) expressed in bacterial expression system assessed as residual binding level at 10 uM by Kinomescan method relative to control.
For assay [4], the target named is Cyclin-dependent kinase 5 (Homo sapiens) (UniProt Q00535). Kind of assay: Binding affinity to wild-type human full length CDK5 (M1 to P292 residues) expressed in bacterial expression system assessed as residual binding level at 10 uM by Kinomescan method relative to control.
In assay [5] the target is Cyclin-dependent kinase-like 2 (Homo sapiens) (UniProt Q92772). Kind of assay: Binding affinity to wild-type human partial length CDKL2 (M1 to D327 residues) expressed in bacterial expression system assessed as residual binding level at 10 uM by Kinomescan method relative to control.
Assay [6] concerns the target Serine/threonine-protein kinase Chk2 (Homo sapiens) (UniProt O96017). Kind of assay: Binding affinity to wild-type human partial length CHEK2 (S253 to E574 residues) expressed in bacterial expression system assessed as residual binding level at 10 uM by Kinomescan method relative to control.
Assay [7] deals with Epithelial discoidin domain-containing receptor 1 (Homo sapiens) (UniProt Q08345). Kind of assay: Binding affinity to wild-type human partial length DDR1 (R565 to V876 residues) expressed in bacterial expression system assessed as residual binding level at 10 uM by Kinomescan method relative to control.
Assay [8] deals with Fibroblast growth factor receptor 3 (Homo sapiens) (UniProt P22607). Kind of assay: Binding affinity to wild-type human partial length FGFR3 (R442 to S771 residues) expressed in bacterial expression system assessed as residual binding level at 10 uM by Kinomescan method relative to control.
The target in assay [9] is Hormonally up-regulated neu tumor-associated kinase (Homo sapiens) (UniProt P57058). Kind of assay: Binding affinity to wild-type human partial length HUNK (A31 to K354 residues) expressed in bacterial expression system assessed as residual binding level at 10 uM by Kinomescan method relative to control.
The target in assay [10] is Interleukin-1 receptor-associated kinase 1 (Homo sapiens) (UniProt P51617). Kind of assay: Binding affinity to wild-type human partial length IRAK1 (R194 to S712 residues) expressed in mammalian expression system assessed as residual binding level at 10 uM by Kinomescan method relative to control.
Assay [11] concerns the target Dual specificity mitogen-activated protein kinase kinase 7 (Homo sapiens) (UniProt O14733). Kind of assay: Binding affinity to wild-type human full length MKK7 (M1 to R419 residues) expressed in mammalian expression system assessed as residual binding level at 10 uM by Kinomescan method relative to control.
Assay [12] has as its target Serine/threonine-protein kinase MRCK beta (Homo sapiens) (UniProt Q9Y5S2). Kind of assay: Binding affinity to wild-type human partial length MRCKB (L56 to S417 residues) expressed in bacterial expression system assessed as residual binding level at 10 uM by Kinomescan method relative to control.
The target of assay [13] is Muscle, skeletal receptor tyrosine-protein kinase (Homo sapiens) (UniProt O15146). Kind of assay: Binding affinity to wild-type human partial length MUSK (M553 to V869 residues) expressed in bacterial expression system assessed as residual binding level at 10 uM by Kinomescan method relative to control.
Assay [14] has as its target Myosin-IIIa (Homo sapiens) (UniProt Q8NEV4). Kind of assay: Binding affinity to wild-type human partial length MYO3A (M1 to K338 residues) expressed in bacterial expression system assessed as residual binding level at 10 uM by Kinomescan method relative to control.
Assay [15] concerns the target Serine/threonine-protein kinase NIM1 (Homo sapiens) (UniProt Q8IY84). Kind of assay: Binding affinity to wild-type human partial length NIM1 (Q44 to N355 residues) expressed in mammalian expression system assessed as residual binding level at 10 uM by Kinomescan method relative to control.
The target of assay [16] is Cyclin-dependent kinase 14 (Homo sapiens) (UniProt O94921). Kind of assay: Binding affinity to wild-type human full length PFTK1 (M1 to H451 residues) expressed in bacterial expression system assessed as residual binding level at 10 uM by Kinomescan method relative to control.
The target of assay [17] is Phosphatidylinositol 4,5-bisphosphate 3-kinase catalytic subunit beta isoform (Homo sapiens) (UniProt P42338). Kind of assay: Binding affinity to wild-type human partial length PIK3CB (P118 to S1070 residues) expressed in mammalian expression system assessed as residual binding level at 10 uM by Kinomescan method relative to control.
The target of assay [18] is Serine/threonine-protein kinase RIO2 (Homo sapiens) (UniProt Q9BVS4). Kind of assay: Binding affinity to wild-type human partial length RIOK2 (M1 to D313 residues) expressed in mammalian expression system assessed as residual binding level at 10 uM by Kinomescan method relative to control.
For assay [19], the target named is Rho-associated protein kinase 1 (Homo sapiens) (UniProt Q13464). Kind of assay: Binding affinity to wild-type human partial length ROCK1 (M1 to R415 residues) expressed in mammalian expression system assessed as residual binding level at 10 uM by Kinomescan method relative to control.
Assay [20] addresses Ribosomal protein S6 kinase alpha-2 (Homo sapiens) (UniProt Q15349). Kind of assay: Binding affinity to wild-type human partial length C-terminal RSK3 kinase domain 2 (V403 to K700 residues) expressed in bacterial expression system assessed as residual binding level at 10 uM by Kinomescan method relative to control.
Assay [21] deals with NUAK family SNF1-like kinase 2 (Homo sapiens) (UniProt Q9H093). Kind of assay: Binding affinity to wild-type human partial length SNARK (P22 to A333 residues) expressed in mammalian expression system assessed as residual binding level at 10 uM by Kinomescan method relative to control.
The target of assay [22] is BDNF/NT-3 growth factors receptor (Homo sapiens) (UniProt Q16620). Kind of assay: Binding affinity to wild-type human partial length TRKB (Q547 to G838 residues) expressed in mammalian expression system assessed as residual binding level at 10 uM by Kinomescan method relative to control.
The target of assay [23] is Dual specificity protein kinase TTK (Homo sapiens) (UniProt P33981). Kind of assay: Binding affinity to wild-type human partial length TTK (N505 to V798 residues) expressed in bacterial expression system assessed as residual binding level at 10 uM by Kinomescan method relative to control.
The target in assay [24] is Serine/threonine-protein kinase WNK3 (Homo sapiens) (UniProt Q9BYP7). Kind of assay: Binding affinity to wild-type human partial length WNK3 (M1 to D434 residues) expressed in mammalian expression system assessed as residual binding level at 10 uM by Kinomescan method relative to control.

Each structure is given as a SMILES string.

Chain of Atypical kinase COQ8A, mitochondrial (Homo sapiens) (Q8NI60 163-647 limits assumed): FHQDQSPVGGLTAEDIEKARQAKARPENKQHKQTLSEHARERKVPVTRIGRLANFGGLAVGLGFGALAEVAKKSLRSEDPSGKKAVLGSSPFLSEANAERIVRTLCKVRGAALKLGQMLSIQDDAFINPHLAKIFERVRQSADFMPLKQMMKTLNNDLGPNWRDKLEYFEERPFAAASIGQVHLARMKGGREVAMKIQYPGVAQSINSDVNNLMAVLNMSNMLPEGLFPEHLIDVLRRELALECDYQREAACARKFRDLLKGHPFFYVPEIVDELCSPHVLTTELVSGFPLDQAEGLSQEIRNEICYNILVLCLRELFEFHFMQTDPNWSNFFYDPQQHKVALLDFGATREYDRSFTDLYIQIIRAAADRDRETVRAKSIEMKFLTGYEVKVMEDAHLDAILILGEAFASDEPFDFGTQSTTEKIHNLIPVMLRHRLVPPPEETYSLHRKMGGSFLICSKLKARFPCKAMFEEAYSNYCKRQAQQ
Chain of Ribosomal protein S6 kinase alpha-2 (Homo sapiens) (Q15349 whole entry, the tested form may be a part): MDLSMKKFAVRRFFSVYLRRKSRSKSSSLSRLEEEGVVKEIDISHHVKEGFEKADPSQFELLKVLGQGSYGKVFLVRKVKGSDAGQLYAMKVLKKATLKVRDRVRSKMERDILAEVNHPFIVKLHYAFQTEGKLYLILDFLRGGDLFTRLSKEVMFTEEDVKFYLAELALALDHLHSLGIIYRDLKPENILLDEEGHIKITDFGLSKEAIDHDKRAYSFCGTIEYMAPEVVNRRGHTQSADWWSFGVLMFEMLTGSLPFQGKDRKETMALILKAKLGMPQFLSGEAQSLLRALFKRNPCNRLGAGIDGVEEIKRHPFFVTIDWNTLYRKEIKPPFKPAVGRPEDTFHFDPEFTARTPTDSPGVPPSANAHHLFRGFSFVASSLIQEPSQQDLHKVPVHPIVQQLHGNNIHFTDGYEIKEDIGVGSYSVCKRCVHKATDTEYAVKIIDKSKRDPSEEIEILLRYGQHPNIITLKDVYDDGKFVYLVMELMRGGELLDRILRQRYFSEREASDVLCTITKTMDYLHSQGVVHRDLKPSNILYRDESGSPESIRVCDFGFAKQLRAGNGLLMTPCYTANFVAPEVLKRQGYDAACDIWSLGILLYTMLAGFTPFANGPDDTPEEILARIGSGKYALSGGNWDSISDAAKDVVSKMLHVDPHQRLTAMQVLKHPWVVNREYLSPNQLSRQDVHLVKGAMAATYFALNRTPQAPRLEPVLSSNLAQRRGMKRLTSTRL
Chain of Serine/threonine-protein kinase NIM1 (Homo sapiens) (Q8IY84 whole entry, the tested form may be a part): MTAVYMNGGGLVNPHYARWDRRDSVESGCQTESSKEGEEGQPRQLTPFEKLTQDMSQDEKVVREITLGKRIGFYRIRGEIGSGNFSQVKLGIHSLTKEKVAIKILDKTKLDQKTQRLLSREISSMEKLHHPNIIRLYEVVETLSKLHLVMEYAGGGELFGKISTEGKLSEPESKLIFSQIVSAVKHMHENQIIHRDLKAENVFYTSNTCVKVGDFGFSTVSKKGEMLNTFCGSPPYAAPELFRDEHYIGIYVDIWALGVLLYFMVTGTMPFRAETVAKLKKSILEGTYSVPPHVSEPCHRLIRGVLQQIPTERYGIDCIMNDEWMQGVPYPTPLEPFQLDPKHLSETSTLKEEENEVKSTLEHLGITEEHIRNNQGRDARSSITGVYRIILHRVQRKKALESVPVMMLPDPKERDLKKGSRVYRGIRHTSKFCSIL
Chain of Interleukin-1 receptor-associated kinase 1 (Homo sapiens) (P51617 whole entry, looked up, the tested form may be a part): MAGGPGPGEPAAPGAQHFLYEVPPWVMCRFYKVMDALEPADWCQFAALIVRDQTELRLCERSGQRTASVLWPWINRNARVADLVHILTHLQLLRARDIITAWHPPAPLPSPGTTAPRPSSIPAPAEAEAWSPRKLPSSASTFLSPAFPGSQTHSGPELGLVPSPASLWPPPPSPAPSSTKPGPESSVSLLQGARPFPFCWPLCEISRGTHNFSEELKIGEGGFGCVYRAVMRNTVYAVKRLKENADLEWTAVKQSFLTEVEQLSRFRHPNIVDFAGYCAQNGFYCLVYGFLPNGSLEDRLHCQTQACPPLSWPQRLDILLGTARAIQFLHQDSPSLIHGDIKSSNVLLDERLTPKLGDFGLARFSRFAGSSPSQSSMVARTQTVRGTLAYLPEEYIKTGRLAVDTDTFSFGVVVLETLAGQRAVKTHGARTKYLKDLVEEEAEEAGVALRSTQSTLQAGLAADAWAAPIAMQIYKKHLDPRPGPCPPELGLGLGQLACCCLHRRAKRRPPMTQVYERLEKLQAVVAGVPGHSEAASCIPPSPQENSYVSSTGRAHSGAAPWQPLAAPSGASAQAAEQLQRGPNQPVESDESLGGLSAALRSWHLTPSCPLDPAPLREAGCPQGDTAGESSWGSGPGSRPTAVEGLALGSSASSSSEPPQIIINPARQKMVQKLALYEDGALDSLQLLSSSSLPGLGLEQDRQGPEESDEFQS
Chain of Serine/threonine-protein kinase RIO2 (Homo sapiens) (Q9BVS4 whole entry, looked up, the tested form may be a part): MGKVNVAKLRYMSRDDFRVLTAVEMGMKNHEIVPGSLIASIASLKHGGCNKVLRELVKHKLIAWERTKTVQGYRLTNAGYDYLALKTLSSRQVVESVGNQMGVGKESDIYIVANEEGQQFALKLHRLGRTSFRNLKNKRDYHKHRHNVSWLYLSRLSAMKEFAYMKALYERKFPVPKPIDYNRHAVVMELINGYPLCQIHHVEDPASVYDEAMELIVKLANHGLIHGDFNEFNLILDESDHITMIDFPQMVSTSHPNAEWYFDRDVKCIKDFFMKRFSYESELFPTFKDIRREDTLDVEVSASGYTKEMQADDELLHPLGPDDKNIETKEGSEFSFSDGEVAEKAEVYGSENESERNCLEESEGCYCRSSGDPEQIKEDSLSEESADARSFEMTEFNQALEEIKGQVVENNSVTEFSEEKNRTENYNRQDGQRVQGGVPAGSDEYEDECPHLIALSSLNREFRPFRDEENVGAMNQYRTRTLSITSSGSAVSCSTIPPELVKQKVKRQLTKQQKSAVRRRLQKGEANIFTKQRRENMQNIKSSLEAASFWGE
Chain of Cyclin-dependent kinase 5 (Homo sapiens) (Q00535 whole entry, looked up, the tested form may be a part): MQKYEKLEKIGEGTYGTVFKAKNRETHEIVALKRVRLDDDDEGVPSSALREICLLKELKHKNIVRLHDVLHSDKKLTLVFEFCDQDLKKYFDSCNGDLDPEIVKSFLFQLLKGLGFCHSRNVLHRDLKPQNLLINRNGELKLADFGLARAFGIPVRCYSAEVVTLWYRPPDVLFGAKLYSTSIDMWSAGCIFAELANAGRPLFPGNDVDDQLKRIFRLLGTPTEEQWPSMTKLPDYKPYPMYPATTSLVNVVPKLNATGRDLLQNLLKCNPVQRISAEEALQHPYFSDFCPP
Chain of Myosin-IIIa (Homo sapiens) (Q8NEV4 whole entry, the tested form may be a part): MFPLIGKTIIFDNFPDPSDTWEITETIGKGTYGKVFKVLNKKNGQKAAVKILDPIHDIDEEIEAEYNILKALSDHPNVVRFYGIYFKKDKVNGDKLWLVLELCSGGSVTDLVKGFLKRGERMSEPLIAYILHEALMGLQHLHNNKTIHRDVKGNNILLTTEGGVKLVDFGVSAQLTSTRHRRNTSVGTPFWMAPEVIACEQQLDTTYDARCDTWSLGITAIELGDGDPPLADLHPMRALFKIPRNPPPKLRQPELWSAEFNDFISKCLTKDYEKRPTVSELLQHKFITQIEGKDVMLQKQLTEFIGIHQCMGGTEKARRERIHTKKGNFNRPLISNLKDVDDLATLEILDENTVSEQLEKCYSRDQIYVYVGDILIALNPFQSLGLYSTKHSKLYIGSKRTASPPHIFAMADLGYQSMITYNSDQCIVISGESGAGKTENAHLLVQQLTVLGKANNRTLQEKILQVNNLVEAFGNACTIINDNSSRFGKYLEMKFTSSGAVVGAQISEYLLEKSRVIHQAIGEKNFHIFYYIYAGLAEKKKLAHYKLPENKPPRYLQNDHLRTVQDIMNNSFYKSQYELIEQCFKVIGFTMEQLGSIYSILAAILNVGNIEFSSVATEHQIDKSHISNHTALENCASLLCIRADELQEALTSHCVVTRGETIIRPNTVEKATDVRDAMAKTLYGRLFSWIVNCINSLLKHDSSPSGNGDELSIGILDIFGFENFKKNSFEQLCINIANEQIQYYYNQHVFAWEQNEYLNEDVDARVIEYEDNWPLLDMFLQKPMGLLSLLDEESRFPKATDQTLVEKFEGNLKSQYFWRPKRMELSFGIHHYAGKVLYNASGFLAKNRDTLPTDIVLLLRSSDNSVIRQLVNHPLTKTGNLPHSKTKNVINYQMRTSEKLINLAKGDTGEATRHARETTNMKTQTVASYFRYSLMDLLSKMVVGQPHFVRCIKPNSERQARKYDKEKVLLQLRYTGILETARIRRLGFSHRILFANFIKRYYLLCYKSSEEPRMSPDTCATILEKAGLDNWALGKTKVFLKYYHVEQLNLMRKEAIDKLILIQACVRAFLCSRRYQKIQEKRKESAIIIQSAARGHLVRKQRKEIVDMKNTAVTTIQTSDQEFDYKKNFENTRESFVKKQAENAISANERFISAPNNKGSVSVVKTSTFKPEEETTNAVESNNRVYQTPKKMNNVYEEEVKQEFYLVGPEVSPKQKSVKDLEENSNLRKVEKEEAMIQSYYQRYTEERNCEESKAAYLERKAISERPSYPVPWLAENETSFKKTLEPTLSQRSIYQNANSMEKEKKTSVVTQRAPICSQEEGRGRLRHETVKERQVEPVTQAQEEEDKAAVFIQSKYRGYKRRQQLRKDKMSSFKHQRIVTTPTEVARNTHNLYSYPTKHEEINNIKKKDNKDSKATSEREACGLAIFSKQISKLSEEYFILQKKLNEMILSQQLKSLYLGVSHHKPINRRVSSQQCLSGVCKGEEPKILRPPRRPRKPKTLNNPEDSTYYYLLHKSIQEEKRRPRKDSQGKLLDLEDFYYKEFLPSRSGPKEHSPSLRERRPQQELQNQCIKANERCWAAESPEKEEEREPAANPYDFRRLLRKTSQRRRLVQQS

With `CC(C)N1C(=O)C(NCCCN(C)C)=C(c2cn(C)c3ccccc23)C1=O.Cl`, the Activity is 100% in assay [1]; 88% in assay [2]; 91% in [3]; 96% in assay [4]; 91% in assay [5]; 80% in [6]. Also, the Activity in assay [7] was 100%; in assay [8], 100%; in assay [9] it was 100%; in assay [10], 66%; in assay [11] it was 88%; in assay [12] it was 85%. Further, the Activity stood at 100% in [13]; 89% in [14]; 90% in [15]; 100% in assay [16]; 89% in assay [17]; 91% in assay [18]. Moreover, the Activity is 96% in [19]; 100% in assay [20]; 79% in [21]; 94% in assay [22]; 100% in [23]; 78% in assay [24].
